# Test results from patent US20090281191A1, “USE OF ORGANIC COMPOUNDS” (priority 2006, published 2009).
# Experiments:
# (His)6-hERRγ LBD = biological target: T1, (His)6-hERRγ LBD (Homo sapiens, UniProt P62508); assay: FRET assay of agonist-induced activation of ERRγ with coactivator peptide PGC-1α; format: biochemical; settings: for maximal increase in FRET signal: highest concentration tested / saturating concentrations
# T1 sequence (P62508 233-457 limits assumed): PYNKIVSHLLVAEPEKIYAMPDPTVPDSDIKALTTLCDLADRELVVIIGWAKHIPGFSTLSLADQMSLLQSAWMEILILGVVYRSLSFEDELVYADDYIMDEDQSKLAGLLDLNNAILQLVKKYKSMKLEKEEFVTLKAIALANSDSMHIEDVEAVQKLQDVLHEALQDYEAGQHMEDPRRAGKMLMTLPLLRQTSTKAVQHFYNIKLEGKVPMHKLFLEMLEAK
# Description: The FRET assay is designed to detect agonist-induced activation of ERRγ in the presence of the coactivator peptide PGC-1α. […] Mix 1 contained antibody, hERRγ LBD in buffer in a volume of 19 μL and was added to 30 μL of Mix 2 which contained Cy5-peptide in buffer (1. 6xHis-ERRγ-LBD, 3.6 mg/ml, MW 27 KDa; 2. Cy5-PGC-1 peptide from AnaSpec; 3. Other buffer components from Sigma; 4. EU-antiHis6-Ab from Perkin Elmer; and 5. Test compounds.). The assays were carried out in black 384-well plates and incubated at room temperature for 3 hrs before FRET signals were measured using a Wallac Victor 2 (Perkin Elmer) plate reader. The ratio of emission signals (665 nm/615 nm) was used to determine the FRET assay response. In some cases, the FRET signal to background ratio was used and this is simply defined as the FRET ratio in the presence of protein […] FRET ratio in the absence of protein. The test compounds were dissolved in DMSO at 10 mM and used as indicated.
# The ability of agonist compounds to induce an increased FRET response between the Europium-labeled anti-(His)6 antibody/(His)6-hERRγ LBD complex and Cy5-[…] […] The compounds were solubilized in 10 mM DMSO and the concentration range of the titration was from 100 μM down to 2 nM. The final DMSO concentration was 2%. A DMSO control (no compound) at 2% was also prepared. All samples were made in duplicate.
# primary mouse myotubes [1] = assay: Citrate synthase assay in primary mouse myotubes; format: cell-based; settings: 24 hours
# Description: (§1) Primary mouse myoblasts from FVB mice were isolated and maintained as described in Bare et al. For experimentation, mouse myoblasts were grown to 80% confluence in F-10/Ham's media containing 20% fetal bovine serum, 1% Penicillin/Streptomycin and 2.5 ng/mL bFGF (human recombinant). The cells were then plated to 700,000 cells per well in 6-well plates, and allowed to differentiate into myotubes for 36 to 48 hours in DMEM containing 5% equine serum and Penicillin/Streptomycin. […] Assays performed included analysis of gene expression by real time quantitative PCR (RT-PCR), cytochrome c ELISA, citrate synthase assay, fatty acid oxidation assay, and a respiration assay. […] Each dose was tested in trplicate, and a set of wells treated with an equivalent volume of DMSO used was included in every experimental readout for control purposes.
# The citrate synthase assay was performed following the procedure described in above in this application.
# primary mouse myotubes [2] = assay: Gene expression by real time quantitative PCR in primary mouse myotubes; format: cell-based; settings: 24 h
# Description: as §1
# For the purpose of assessing gene expression by RT-PCR, RNA was isolated from cell lysates, and cDNA was subsequently synthesized from this RNA. For RNA isolation, cells were homogenized in TRIzol (Invitrogen, catalog number 15596-026, Carlsbad, Calif.), and total RNA was isolated following the manufacturer's instructions. RNA was quantified using the spectrophotometer.
# Reverse transcription was performed using the BD Sprint™ PowerScriptT™ kit from BD Biosciences (catalog number 639562). Quantitative real time PCR for the following genes was performed using Assay-on-Demand primer probes from Applied Biosystems (See Post-text Table 8-1 for catalog numbers): B2M, ERRγ, ERRβ, ERRα, PGC-1α, PGC-1β, PPARα, PPARγ, PPARδ, COX-4, cytochrome c, UQCRB, CPT-1b, LCAD, MCAD, IDH3a, ATP-5b, UCP-2, and UCP-3.
# Taqman real time quantitative PCR was performed and analyzed following the manufacturer's instructions (Applied Biosystems). Specifically, amplification was performed in triplicate, in a 10 μl reaction mixture. The reaction mixture included: 1× TaqMan® Universal PCR Master Mix (Applied Biosystems, catalog number 4304437), 1× of Assay-on-Demand primer probe, and 2 μl of cDNA sample. Gene expression was calculated by normalizing to total cDNA as measured by B2M endogenous control (Applied Biosystems, catalog number Mm00437762_m1). The samples were initially incubated for 2 min at 50° C. for optimum uracyl-N-glycosylase activity. The PCR program started with a 95° C. denaturing for 10 min, followed by 40 cycles of 95° C./15 sec and 60° C./1 min in a 384-well thermal cycler (Perkin-Elmer Applied Biosystems). Each amplification run contained “No Template” controls (buffer and primers only). Amplification data were collected by the 7700 Sequence Detector and analyzed using the Sequence Detection System software developed by Perkin-Elmer (Applied Biosystems). The fractional cycle number reflecting a positive PCR result is called the cycle threshold (Ct).
# Average gene expression values were calculated for each group relative to B2M, using 2^−ΔΔCt (as described by Applied Biosystems, Foster City, Calif.) with the expression in the vehicle treated cells (0 μM) normalized to a value of 1. The data are expressed as mean±SEM (n=3 replicate wells). Statistical significance was measured using Student's t test.
# ERRγ = biological target: T2, ERRγ (Homo sapiens, UniProt P62508); settings: purportedly, Zuercher et al. 2005; cited from earlier work
# T2 sequence (P62508 1-458): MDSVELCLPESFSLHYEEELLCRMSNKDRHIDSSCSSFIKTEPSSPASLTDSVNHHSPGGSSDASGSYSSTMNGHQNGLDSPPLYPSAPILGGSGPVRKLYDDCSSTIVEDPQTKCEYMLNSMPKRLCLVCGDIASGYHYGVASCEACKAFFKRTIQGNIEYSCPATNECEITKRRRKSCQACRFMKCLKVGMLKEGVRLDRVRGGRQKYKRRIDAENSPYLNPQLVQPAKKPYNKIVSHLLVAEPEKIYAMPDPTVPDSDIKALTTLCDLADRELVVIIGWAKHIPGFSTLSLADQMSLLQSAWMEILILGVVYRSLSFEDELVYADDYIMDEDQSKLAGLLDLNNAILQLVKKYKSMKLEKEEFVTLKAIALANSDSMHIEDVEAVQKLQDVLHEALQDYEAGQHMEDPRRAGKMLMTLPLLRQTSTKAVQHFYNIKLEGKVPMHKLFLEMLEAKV
# ERs = settings: Zuercher et al. 2005; cited from earlier work
# ERRβ = biological target: T3, ERRβ (Homo sapiens, UniProt O95718); settings: purportedly, Zuercher et al. 2005; cited from earlier work
# T3 sequence (O95718 1-433): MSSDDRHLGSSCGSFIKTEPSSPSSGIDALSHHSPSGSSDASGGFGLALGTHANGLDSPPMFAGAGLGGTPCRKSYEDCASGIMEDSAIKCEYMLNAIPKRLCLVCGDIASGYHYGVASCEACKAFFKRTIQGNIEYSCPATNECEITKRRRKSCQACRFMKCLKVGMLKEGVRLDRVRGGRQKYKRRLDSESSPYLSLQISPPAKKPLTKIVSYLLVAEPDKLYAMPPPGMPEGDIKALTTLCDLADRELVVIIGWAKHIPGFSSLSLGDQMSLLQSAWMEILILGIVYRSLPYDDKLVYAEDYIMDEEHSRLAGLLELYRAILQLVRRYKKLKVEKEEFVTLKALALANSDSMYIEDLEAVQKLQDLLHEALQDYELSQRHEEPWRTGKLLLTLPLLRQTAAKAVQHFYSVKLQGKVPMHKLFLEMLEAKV
# primary mouse myotubes [3] = assay: Respiration assay (oxygen consumption, Clark electrode) in primary mouse myotubes; format: cell-based; settings: 30 μM, 24 hr
# Description: as §1
# Cells were washed once with phosphate-buffered saline (PBS) and treated for 5 min at 37° C. with 2 ml of trypsin (Mediatech, catalog number 25-052-CI). Without removing trypsin, 10 ml of DMEM plus 10% FBS was added into each well. The cells were transferred to a 15 ml tube and centrifuged for 5 min at 1000 rpm. The cells were washed once with the medium and pelleted before being resuspended in the assay buffer containing 25 mM glucose (Sigma, catalog number G-5400), 1 mM pyruvate (Invitrogen, catalog number 11360-070) and 2% bovine serum albumin (BSA) (MP Biomedicals, catalog number 103703) in D-PBS (Invitrogen, catalog number 14040-133). The cell suspension was diluted to 1×10^6 cells per ml in the assay buffer and kept at 37° C. until used. Oxygen consumption was measured with a Clark electrode according to the instructions provided by Hansatech (Norfolk, UK). One half of the cell suspension was used for each measurement. […] The rate of respiration was measured by calculating the slope of the flux of oxygen consumption using the software provided by the manufacturer.
# primary mouse myotubes [4] = assay: Cytochrome c ELISA in primary mouse myotubes; format: cell-based; settings: 30 μM, 24 hours, vs vehicle
# Description: as §1
# The cytochrome c enzyme-linked immunosorbent assay (ELISA) was performed using the RatMouse Cytochrome c Immunoassay kit from R&D Systems (catalog number MCTC0, R&D Systems, Minneapolis, Minn.) following the manufacturer's instructions.
# ERRα = biological target: T4, ERRα (Homo sapiens, UniProt P11474); settings: Zuercher et al. 2005; cited from earlier work
# T4 sequence (P11474 1-423): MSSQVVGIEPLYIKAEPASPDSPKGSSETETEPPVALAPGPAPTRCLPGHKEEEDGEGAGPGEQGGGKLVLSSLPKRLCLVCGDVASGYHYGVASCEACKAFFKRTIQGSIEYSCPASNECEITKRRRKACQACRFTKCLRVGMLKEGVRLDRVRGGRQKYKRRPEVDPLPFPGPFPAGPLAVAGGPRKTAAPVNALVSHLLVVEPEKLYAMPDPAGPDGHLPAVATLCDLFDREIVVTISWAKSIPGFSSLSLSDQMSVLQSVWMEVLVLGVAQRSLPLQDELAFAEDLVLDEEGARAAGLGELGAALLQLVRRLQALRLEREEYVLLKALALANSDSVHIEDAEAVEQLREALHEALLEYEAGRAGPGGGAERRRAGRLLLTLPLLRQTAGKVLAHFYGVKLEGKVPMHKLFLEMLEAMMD
# [5] = 30 μM, relative to B2M, vehicle = 1
compound,measurement,setting,value
"CCN(CC)c1ccc(/C=N/NC(=O)c2ccc(O)cc2)cc1 [LCN446, N′-(4-(diethylamino)phenylmethylidene)-4-hydroxybenzohydrazide]",maximal increase in FRET signal,(His)6-hERRγ LBD,70%
same,EC50,"(His)6-hERRγ LBD; titration 100 μM down to 2 nM, 2% DMSO, duplicate, read-out: EC50 of FRET response",540 nM
"CC(C)c1ccc(/C=N/NC(=O)c2ccc(O)cc2)cc1 [AJQ710, 4-hydroxy-N′-(4-isopropylphenylmethylidene)-benzohydrazide]",increase in citrate synthase activity,primary mouse myotubes [1]; 3 μM,9%
same,increase in citrate synthase activity,primary mouse myotubes [1]; 10 μM,8%
same,increase in citrate synthase activity,primary mouse myotubes [1]; 30 μM,28%
same,UCP-2 highest expression,"primary mouse myotubes [2]; 10 μM, relative to B2M, vehicle = 1",1.5 fold
same,ATP-5b expression increase,primary mouse myotubes [2]; [5],1.6 fold
same,COX-4 expression increase,primary mouse myotubes [2]; [5],2 fold
same,CPT-1b expression increase,primary mouse myotubes [2]; [5],over 3 fold
same,ERRα expression increase,primary mouse myotubes [2]; [5],3.7 fold
same,ERRβ expression increase,primary mouse myotubes [2]; [5],1.5 fold
same,ERRγ expression,primary mouse myotubes [2]; [5],1.4 fold
same,IDH3α expression increase,primary mouse myotubes [2]; [5],over 2 fold
same,LCAD expression increase,primary mouse myotubes [2]; [5],2.8 fold
same,MCAD expression increase,primary mouse myotubes [2]; [5],1.6 fold
same,PGC-1α expression,primary mouse myotubes [2]; [5],1.9 fold
same,PPARγ maximal expression,primary mouse myotubes [2]; [5],2.2 fold
same,UCP-3 expression increase,primary mouse myotubes [2]; [5],over 3 fold
same,UQCRB expression increase,primary mouse myotubes [2]; [5],2 fold
same,cytochrome c expression increase,primary mouse myotubes [2]; [5],3.7 fold
same,PPARα expression,primary mouse myotubes [2]; 1-30 μM,no change in expression
same,PPARδ expression,primary mouse myotubes [2]; 1-30 μM,no change in expression
same,PGC-1β expression,"primary mouse myotubes [2]; relative to B2M, vehicle = 1",1.8 fold
same,activation of ERRγ,ERRγ,activates
same,activation of the ERs,ERs,does not activate
same,activation of ERRβ (printed ERRP),ERRβ,activates
same,increase in basal respiration,primary mouse myotubes [3]; vs vehicle treated controls,37%
same,increase in respiration rate in the presence of FCCP,primary mouse myotubes [3]; vs vehicle-treated control cells,32%
same,increase in oligomycin-insensitive respiration (proton leak),primary mouse myotubes [3]; not statistically significant,36%
same,maximal increase in FRET signal,(His)6-hERRγ LBD,≤ 60%
same,increase of cytochrome c protein,primary mouse myotubes [4],88%
same,activation of ERRα,ERRα,does not activate
